Laboratory results published in patent publication US9249453B2, “Method for identifying a malodor inhibitor” (Kao Corporation, priority 2011, dated 2016).
Read-outs that look alike come from different tables or passages of the source.

Experiments:
Type in all cases: cell-based
OR5K1 = molecular target: T1, OR5K1 (Homo sapiens, UniProt Q8NHB7); test: Luciferase reporter assay: suppression of the skatole response of OR5K1 expressed in HEK293 cells; conditions: for inhibition at 100 µM: read-out: Inhibition rate 5K1
T1 construct: expressed in transfected cells; host or cells: HEK293
T1 sequence (Q8NHB7 1-308): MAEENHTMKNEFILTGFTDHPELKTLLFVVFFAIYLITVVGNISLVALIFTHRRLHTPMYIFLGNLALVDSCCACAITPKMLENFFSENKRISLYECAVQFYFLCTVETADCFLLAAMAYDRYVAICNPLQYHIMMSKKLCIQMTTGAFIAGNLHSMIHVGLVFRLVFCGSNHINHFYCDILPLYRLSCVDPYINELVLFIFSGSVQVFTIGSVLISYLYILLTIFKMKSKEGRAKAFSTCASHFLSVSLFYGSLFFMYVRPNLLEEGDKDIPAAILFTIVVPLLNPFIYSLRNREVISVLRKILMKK
Protocol: (§1) A reaction solution having a composition shown in Table 1 was prepared on a clean bench, and left to stand for 15 minutes. The solution was dispensed to each well of a 96-well plate (BD). Subsequently, HEK293 cells (100 μL, 3×10^5 cells/cm^2) were seeded in each well and cultured for 24 hours in an incubator at 37° C. and under 5% CO2 conditions.
(§2) The olfactory receptor expressed in HEK293 cells activates adenylate cyclase with the aid of Gαs present in cells, to thereby increase intracellular cAMP level. In this study, odorant response was measured by a luciferase reporter gene assay which monitored the intracellular cAMP level as the luminescence value derived from a firefly luciferase gene (fluc2P-CRE-hygro). Also, a Renilla luciferase gene fused downstream of a CMV promoter (hRluc-CMV) was also transfected to HEK293 cells as an internal standard to correct errors in gene transfer efficiency and number of cells.
(§3) Cell culturing was performed for four hours in a CO2-incubator, whereby the luciferase gene sufficiently expressed in the cells. Luciferase activity was measured by means of a Dual-Glo™ luciferase assay system (promega) according to an instruction manual thereof. The luminescence value derived from firefly luciferase induced by odorant stimulation was divided by the luminescence value of cells which were not stimulated with odorants. The thus-obtained—called “fold increase”—was employed as an index for response intensity.
(§4) The response inhibition rate of a test substance was calculated as follows. Firstly, luminescence value derived from firefly luciferase induced by stimulation with skatole (X), and luminescence value in cells which expressed the same receptor but were not stimulated with skatole (Y) were determined. By subtracting Y from X, the receptor activity by stimulation with skatole alone (X−Y) was determined. Similarly, the luminescence value induced by stimulation with a mixture of skatole and a test substance (Z) was determined. Through subtracting Y (the luminescence value in cells which expressed the same receptor but were not stimulated with skatole) from Z, the receptor activity (Z−Y) by stimulation with a mixture of skatole and the test substance was obtained. From the thus-obtained receptor activity by stimulation with skatole alone (X−Y) and the receptor activity in the presence of a test material (Z−Y), the response inhibition rate of the test substance was calculated by the following equation: Inhibition rate (%)={1−(Z−Y)/(X−Y)}×100.
(§5) In each case, multiple independent experiments were performed in duplicate, and the average of each experiment was used.

OR2W1 = molecular target: T2, OR2W1 (Homo sapiens, UniProt Q9Y3N9); test: Luciferase reporter assay: suppression of the skatole response of OR2W1 expressed in HEK293 cells; conditions: for inhibition at 100 µM: read-out: Inhibition rate 2W1
T2 construct: expressed in transfected cells; host or cells: HEK293
T2 sequence (Q9Y3N9 1-320): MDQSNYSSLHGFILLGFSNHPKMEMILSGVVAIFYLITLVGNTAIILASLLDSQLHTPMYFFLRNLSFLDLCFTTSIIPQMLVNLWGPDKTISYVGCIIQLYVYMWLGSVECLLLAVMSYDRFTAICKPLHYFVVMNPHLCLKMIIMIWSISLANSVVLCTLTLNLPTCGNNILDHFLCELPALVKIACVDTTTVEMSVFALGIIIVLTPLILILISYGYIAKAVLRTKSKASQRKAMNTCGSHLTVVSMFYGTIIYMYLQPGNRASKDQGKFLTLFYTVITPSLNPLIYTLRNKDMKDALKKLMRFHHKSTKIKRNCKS
Protocol: as §1, §2, §3, §4, §5

OR5P3 = molecular target: T3, OR5P3 (Homo sapiens, UniProt Q8WZ94); test: Luciferase reporter assay: suppression of the skatole response of OR5P3 expressed in HEK293 cells; conditions: test substance 100 μM mixed with 300 μM skatole, HEK293 cells expressing OR5P3
T3 construct: expressed in transfected cells; host or cells: HEK293
T3 sequence (Q8WZ94 1-311): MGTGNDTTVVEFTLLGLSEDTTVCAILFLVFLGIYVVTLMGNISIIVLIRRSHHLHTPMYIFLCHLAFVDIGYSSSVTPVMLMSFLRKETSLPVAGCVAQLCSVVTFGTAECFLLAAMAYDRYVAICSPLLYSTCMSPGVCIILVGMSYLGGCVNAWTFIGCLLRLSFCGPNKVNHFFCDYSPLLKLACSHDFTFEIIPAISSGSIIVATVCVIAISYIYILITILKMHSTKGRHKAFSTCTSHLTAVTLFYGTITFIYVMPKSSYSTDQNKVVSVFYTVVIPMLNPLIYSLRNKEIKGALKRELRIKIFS
Protocol: as §1, §2, §3, §4, §5

OR8H1 = molecular target: T4, OR8H1 (Homo sapiens, UniProt Q8NGG4); test: Luciferase reporter assay: suppression of the skatole response of OR8H1 expressed in HEK293 cells; conditions: for inhibition at 100 µM: read-out: Inhibition rate 8H1
T4 construct: expressed in transfected cells; host or cells: HEK293
T4 sequence (Q8NGG4 1-311): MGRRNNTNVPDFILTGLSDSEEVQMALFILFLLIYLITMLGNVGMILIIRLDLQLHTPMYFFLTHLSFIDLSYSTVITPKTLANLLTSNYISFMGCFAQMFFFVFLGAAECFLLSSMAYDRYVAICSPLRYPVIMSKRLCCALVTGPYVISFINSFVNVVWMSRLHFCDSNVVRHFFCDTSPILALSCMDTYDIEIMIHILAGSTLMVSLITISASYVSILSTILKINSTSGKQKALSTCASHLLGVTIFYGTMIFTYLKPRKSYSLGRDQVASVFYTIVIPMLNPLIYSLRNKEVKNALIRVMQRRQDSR
Protocol: as §1, §2, §3, §4, §5

[1] = 4 h, test substance 100 μM mixed with 300 μM skatole, HEK293 cells expressing OR5K1
[2] = 4 h, test substance 100 μM mixed with 300 μM skatole, HEK293 cells expressing OR2W1
[3] = 4 h, test substance 100 μM mixed with 300 μM skatole, HEK293 cells expressing OR8H1
[4] = test substance 100 μM mixed with 300 μM skatole, HEK293 cells expressing OR5K1
[5] = test substance 100 μM mixed with 300 μM skatole, HEK293 cells expressing OR2W1
[6] = test substance 100 μM mixed with 300 μM skatole, HEK293 cells expressing OR8H1

Row | SMILES | inhibition at 100 µM (OR5K1; [1]) [%] | inhibition at 100 µM (OR2W1; [2]) [%] | Inhibition rate 5P3 (OR5P3) | inhibition at 100 µM (OR8H1; [3]) [%] | Inhibition rate 5K1 (OR5K1; [4]) | Inhibition rate 2W1 (OR2W1; [5]) | Inhibition rate 8H1 (OR8H1; [6]) | inhibition at 100 µM (OR5K1; HEK293, 4 h) [%] | inhibition at 100 µM (OR2W1; HEK293, 4 h) [%] | inhibition at 100 µM (OR8H1; HEK293, 4 h) [%]
1 | CC(C=O)C1CCCCC1 (centres unmarked) [Pollenal II, 2-Cyclohexylpropanal] | 20 to 50 | 20 to 50 | C (C >20%) | < 20 |  |  |  |  |  | 
2 | C=CC(C)(O)CCC=C(C)CCC=C(C)C (centres unmarked) [nerolidol, 3,7,11-Trimethyl-1,6,10-dodecatrien-3-ol] | < 20 | > 80 | A (A >80%) | < 20 |  |  |  |  |  | 
3 | CC(C)(C)C1CCC(O)CC1 (centres unmarked) [p-tert-butlcyclohexanol, 4-(1,1-Dimethylethyl)-cyclohexanol] | > 80 | < 20 | A (A >80%) | > 80 |  |  |  |  |  | 
4 | CC(C=O)Cc1ccc(C(C)(C)C)cc1 (stereo not drawn) [lilial, p-tert-Butyl-α-methyl hydrocinnamic aldehyde] |  |  | C (C >20%) |  | C (C >20%) | C (C >20%) | C (C >20%) |  |  | 
5 | CC1(C)CCCC2(C)C1CCC1(C)OCCC12 (centres unmarked) [Ambroxane, Dodecahydro-3a,6,6,9a-tetramethyl-naphtho[2.1-b]furan] |  |  | B (B >50%) |  | C (C >20%) | A (A >80%) | A (A >80%) |  |  | 
6 | CC12CCC(C1)C(C)(C)C2O (centres unmarked) [fenchyl alcohol, 1,3,3-trimethyl-bicyclo[2.2.1]heptan-2-ol] | < 20 | 20 to 50 | C (C >20%) | 20 to 50 |  |  |  |  |  | 
7 | CCCCCCCC1CCC(=O)O1 (centres unmarked) [γ-undecalactone, 5-Heptyl dihydro-2(3H)-furanone] | 50 to 80 | 50 to 80 | B (B >50%) | 50 to 80 |  |  |  |  |  | 
8 | O=C1CCCCCCC=CCCCCCCC1 [globanone, 8-Cyclohexadecen-1-one] | < 20 | > 80 | C (C >20%) | < 20 |  |  |  |  |  | 
9 | O=C1CCCCCCC/C=C\CCCCCCC1 [civetone, (Z)-Cycloheptadeca-9-en-1-one] |  |  | B (B >50%) |  |  |  |  | 50 to 80 | > 80 | 50 to 80
10 | CC1(C)CCCC2=C1CC(C=O)CC2 (centres unmarked) [Cyclemone A, 1,2,3,4,5,6,7,8-octahydro-8,8-dimethyl-2-naphthaldehyde] | 20 to 50 | 50 to 80 | C (C >20%) | 20 to 50 |  |  |  |  |  | 
11 | CC(=O)C1=C(C)C2CC3(C1)C(C)CCC3C2(C)C (centres unmarked) [acetylcedrene, 1-(2,3,4,7,8,8a-Hexahydro-3,6,8,8-tetramethyl-1H-3a,7-methanoazulen-5-yl)-ethanone] | > 80 | > 80 | A (A >80%) | > 80 |  |  |  |  |  | 
12 | O=C1CCCCCCCCCCCCCCO1 [pentalide, Oxacyclohexadecan-2-one] | 50 to 80 | 50 to 80 | B (B >50%) | > 80 |  |  |  |  |  | 
13 | CC1COCc2cc3c(cc21)C(C)(C)C(C)C3(C)C (centres unmarked) [Galaxolide, 1,3,4,6,7,8-Hexahydro-4,6,6,7,8,8-hexamethylcyclopenta-γ-2-benzopyran] | > 80 | 50 to 80 | C (C >20%) | > 80 |  |  |  |  |  | 

The next lines start with results.

Row | inhibition at 100 µM (OR5K1; [1]) [%] | inhibition at 100 µM (OR2W1; [2]) [%] | Inhibition rate 5P3 (OR5P3) | inhibition at 100 µM (OR8H1; [3]) [%] | SMILES | Inhibition rate 5K1 (OR5K1; [4]) | Inhibition rate 2W1 (OR2W1; [5]) | Inhibition rate 8H1 (OR8H1; [6]) | inhibition at 100 µM (OR5K1; HEK293, 4 h) [%] | inhibition at 100 µM (OR2W1; HEK293, 4 h) [%] | inhibition at 100 µM (OR8H1; HEK293, 4 h) [%]
14 | 50 to 80 | 50 to 80 | C (C >20%) | 50 to 80 | C=C1CCCC(C)(C)C1C=CC(=O)CC (centres unmarked) [γ-methylionone, 1-(2,2-Dimethyl-6-methylencyclohexyl)-1-penten-3-one] |  |  |  |  |  | 
15 | 20 to 50 | < 20 | B (B >50%) | 50 to 80 | CC(C)=CCC/C(C)=C/CO [geraniol, 2-trans-3,7-Dimethyl-2,6-octadien-1-ol] |  |  |  |  |  | 
16 | < 20 | < 20 | A (A >80%) | < 20 | CC(CCO)CCc1ccccc1 (centres unmarked) [phenylhexanol, 3-Methyl-5-phenyl-1-pentanol] |  |  |  |  |  | 
17 | 50 to 80 | 50 to 80 | B (B >50%) | 50 to 80 | CC(C)c1cccc(C(C)CC=O)c1 (stereo not drawn) [Florhydral, β-Methyl-3-(1-methylethyl)benzenepropanal] |  |  |  |  |  | 
18 | < 20 | 20 to 50 | B (B >50%) | 20 to 50 | CC(CC=O)CCCC(C)(C)O (centres unmarked) [hydroxycitronellal, 7-Hydroxy-3,7-dimethyl-octanal] |  |  |  |  |  | 
19 | 50 to 80 | 20 to 50 | C (C >20%) | 20 to 50 | COC(C)(C)CCCC(C)CC=O (centres unmarked) [methoxycitronellal, 7-Methoxy-3,7-dimethyl-octanal] |  |  |  |  |  | 
20 | 20 to 50 | < 20 | A (A >80%) | 50 to 80 | CC(CO)CC(C)c1ccccc1 (centres unmarked) [Pumple fleur, 2-Methyl-4-phenylpentanol] |  |  |  |  |  | 
